Data set [1] concerns Human melanoma cells (MeWo). Description: Viability of human melanoma cells (MeWo), crystal violet-staining. Conditions: 72 h. It is filed as cell-based. As to the method:
A, Human melanoma cells (MeWo) were treated with increasing concentrations of the compounds 15 or 3 (MG132) for 72 hours. The viability of the cells after the treatment with compound 15 (-♦-) and with MG132 (-□-) was detected by a crystal-violet-staining. B and C, MeWo cells were co-cultivated with the compounds 15 and 3 (MG132) for 24 hours. The cells were subsequently fixed in 70% ethanol, and treated with RNAse A. The DNA was stained with propidium iodide (5 μg/ml), and analysed by means of FACS (FACS Calibur flow cytometer; Beckton Dickinson). The statistical significance was detected by the chi-square-test. The relative distribution of the cells that were present in the G1-(black), in the S-(white) or in the G2 phase (hatched) of the cellular cycle is shown for both compounds as examined (15 in B and MG132 in C).
Human melanoma cells (MeWo) were incubated for 72 h with different concentrations of the inhibitor 15 and 28, and the viability of the cells was determined by means of crystal violet-staining (FIG. 8).

The target in data set [2] is T1, proteasomal activity in HeLa-cells (Homo sapiens, UniProt P20618+P28074).
T1 construct: endogenous in cells; host or cells: HeLa
The data set is described as follows: Intracellular inhibition of proteasomes in cultivated HeLa-cells. The settings on record: for reduction of the proteolytic activity in cells at 10 nM: HeLa cells; for membrane-permeation / stability during the incubation periods / proteasomal activity reduced to: cultivated cells; for proteasomal activity reduced to: remaining activity. It is filed as cell-based. As to the method:
A, HeLa-cells were cultivated were 24 hours in the presence of the inhibitor. The protein concentration was determined in accordance with the cellular lysis according to Bradford in order to normalise the proteasomal activities to the different amounts of cells. Subsequently Complete (Roche) was added to all lysates, and the proteasomal activity was determined through the hydrolysis of Suc-LLVY-AMC. B, HeLa-cells was incubated with 1 μM of compound 15 for 2, 4, 6 and 24 hours. Cells were lysed, and proteins were separated through SDS-PAGE on a 10% gel, blotted to a PVDF-membrane. The accumulation of the poly-ubiquitinylated proteins was detected in a Western blot by an anti-ubiquitine-antibody (DAKO). C, HeLa-Cells were treated with increasing concentrations of the inhibitor 15, 25, 26, 27, and 28 for 24 hours (lane 1: without inhibitor; lane 2: 10 nM; lane 3: 100 nM and lane 4: 1 μM of the given inhibitor). Cells were lysed, proteins were separated on 15% gels, and the accumulation of the poly-ubiquitinylated proteins was controlled through Western blot.
HeLa-Cells were cultivated in RPMI, supplemented with 10% FCS and penicillin/streptomycin, at 5% CO2. Inhibitors were administered from 100×-stock solutions (in DMSO) at the final concentrations as indicated, and incubated with the cells for at least 20 hours.
Cultivated cells (HeLa) were harvested lysed and with 0.1% NP40 in TEAD in the presence of the commercially available protease-inhibitor-mixture Complete (Roche). The proteasomal activity was measured in 10 μl of the lysate using Suc-LLVY-AMC as a substrate. The protein content was quantified by means of Bradford (Protein assay; BioRad).
An application on cell cultures or animals requires that the concentrations of the inhibitors are chose as low as required. The specific proteasomal activity was reduced to a value of below 50% in cells that were treated with 1 μM of the compounds 15, 22, 25, 26, or 28, respectively (FIG. 6A).

Data set [3] addresses T2, 20S proteasome β5 chymotrypsin-like activity (Suc-LLVY-AMC) (Homo sapiens, UniProt P20618+P28074).
T2 construct: Proteasomes were isolated from red blood cells; from tissue; host or cells: red blood cells
The data set is described as follows: Protease assay, chymotrypsin-like activity of isolated 20S proteasomes (LLVY substrate). It is filed as biochemical. Conditions: isolated 20S proteasome; LLVY-MCA 50 μM; 15 min pre-incubation; read-out: IC50 β5 Chymotrypsin-like (Y). Here is the method:
Proteasomes were isolated from red blood cells. Cells were lysed with DTT (1 mM), and the stroma-free supernatant was loaded on DEAE-sepharose (Toyopearls). Proteasome was eluted with an NaCl-gradient in TEAD (20 mM TrisCl pH 7.4, 1 mM EDTA, 1 mM azide, 1 mM DTT) of 100 to 300 mM NaCl. Proteasome was concentrated using ammonium sulfate-precipitation (between 40 and 70% saturation) and was separated in a 10-40% sucrose-gradient through centrifugation at 40.000 rpm for 16 hours (SW40; L7, Beckman & Coulter). Finally, the proteasomes were purified on a MonoQ-column and eluted with an NaCl-gradient at about 280 mM NaCl. The fractions containing purified proteasome were dialysed against 50 mM NaCl in TEAD and stored on ice. The purity was determined using SDS-PAGE.
Suc-LLVY-AMC, Z-VGR-AMC and LLE-AMC (BACHEM, Calbiochem) was used, in order to determine the chymotrypsin-like, trypsin-like or caspase-like (post-acidic)-activities of the proteasome. Substrate was incubated with proteasome at 37° C. in assay-buffer (20 mM Tris/Cl, pH 7.2, 1 mM EDTA, 1 mM DTT) for one hour. 100 ng proteasome was pre-incubated with 0.01-10 μM of the inhibitor for […]. The reaction was started by the addition of substrate (50 μM). The AMC as released was detected using fluorescence emission at 460 nm (excitation at 390 nm) using a TECAN-fluorimeter. The activity was calculated in fluorescence-units. The inhibition is depicted by IC50-values.
The chymotrypsin-like (Suc-LLVY-AMC), the trypsin-like (Bz-VGR-AMC), and the caspase-like (Z-LLE-AMC)-activities of 20S proteasomes were determined following incubation for one hour at 37° C.
The IC50-values form the inhibition of the proteasome were calculated at increasing concentrations of the inhibitor. The samples were pre-incubated for 15 min in ice. The assay was started through the addition of 50 μM of one of the following fluorogenic peptide substrates:
The release of MCA was determined at 460 nm emission (excitation 390 nm). The IC50-values as calculated for MG132 served as controls.

The subject of another data set is HeLa-cells. The data set is described as follows: Viability of HeLa-cells, crystal violet-staining. It is filed as cell-based. The settings on record: for rate of survival of HeLa-cells: 10 μM, 20 hours. Here is the method: A, The viability of HeLa-Cells that were incubated with the compounds 7-28 and MG132 (1 μM), was determined using crystal-violet-staining after 20 h.
B, The viability of HeLa-Cells is dependent from the concentration of the inhibitor. HeLa-cells were cultivated for 20 hours in the presence of increasing concentrations (10 to 10000 nM) of the compounds (7, 13, 15, 18, 20-22, 24-28) and MG 132. The survival of the cells was determined using crystal-violet-staining.
The viability of Hela-Cells in the presence of different compounds was tested in […]. The viability of HeLa-cells was tested through crystal violet-staining following the incubation with the inhibitors. The cells were washed once with PBS, fixed with 1% glutardialdehyde for 30 min, and washed again. Finally, the fixed cells were stained with 0.1% crystal violet in PBS for 30 min, and subsequently carefully washed with water, in order to remove unbound dye. The residual dye was eluted with 0.1% Triton X-100 in PBS, and determined at 550 nm.

The structures appear in SMILES notation. Entries after “also recorded” stand apart in the source; their conditions may differ. Where a SMILES comes first, the peptide text is derived from it. The star is where a group is joined. Cbz = O=C(OCc1ccccc1)*; OtBu = CC(C)(C)O*

Data on 2 molecules can be found in patent US8835392B2, “Mimetic peptides and the use thereof in the form of 20S, 26S and immunoproteasome inhibitors” (Technische Universität, priority 2005, dated 2014).

Take `CC(C)CC(C=O)NC(=O)C(CC(=O)OC(C)(C)C)NC(=O)C(CC(C)C)NC(=O)OCc1ccccc1` (stereo not drawn) [Compound 15, Z-Leu-Asp(O^tBu)Leu-CHO] (Cbz-Leu-Asp(OtBu)-Leu-aldehyde; configuration not given here): the “sensitivity of tumour cells” value in data set [1] is “increased sensitivity of tumour cells”. Also, the IC50 in data set [1] (Homo sapiens, read-out: concentration at rate of survival of 50% of the cells) was 15 nM. For the same molecule, in data set [2], the “reduction of the proteolytic activity in cells at 10 nM” value is “reduction of the proteolytic activity”, the membrane-permeation entry is on record as “able to penetrate cellular membranes; also recorded: membrane-permeation”, the “stability during the incubation periods” value was “sufficient stability” and the “proteasomal activity reduced to” value was 10%. In data set [3], the IC50 was determined as 58 nM. Moreover, in the data set with HeLa-cells, the toxicity entry is given as “low toxicity” and the “rate of survival of HeLa-cells” value is on record as “markedly reduced”.

Turning to `CC(C)C[C@H](NC(=O)OCc1ccccc1)C(=O)N[C@@H](CC(C)C)C(=O)N[C@@H](CC(C)C)C(=O)C(=O)Nc1ccccc1` [Compound 28], the “sensitivity of tumour cells” value in data set [1] is recorded as “increased sensitivity of tumour cells”. In addition, in data set [2], the “reduction of the proteolytic activity in cells at 10 nM” value is recorded as “reduction of the proteolytic activity”, the membrane-permeation result was “membrane-permeation”, the “stability during the incubation periods” value was “sufficient stability” and the “proteasomal activity reduced to” value stood at 10%. In addition, the IC50 in data set [3] was determined as 72 nM. In addition, in the data set with HeLa-cells, the “rate of survival of HeLa-cells” value is listed as “markedly reduced”.
